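GI50 marks 50% less growth. The concentration for full growth arrest is given as TGI.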
Tests used:
Experiment in all cases: NCI anticancer screen, dose series, 384-well format
[1] = test system: MOLT-4 leukemia
[2] = test system: A498 renal
[3] = test system: TK-10 renal
[4] = test system: OVCAR-5 ovarian
[5] = test system: NCI-H522 lung
[6] = test system: OVCAR-3 ovarian
[7] = test system: UO-31 renal
[8] = test system: U251 glioblastoma
[9] = test system: SF-539 CNS
[10] = test system: HS 578T breast
[11] = test system: M14 melanoma
[12] = test system: CAKI-1 renal
[13] = test system: IGROV1 ovarian

CCCS(=O)(=O)Nc1ccc(F)c(C(=O)c2c[nH]c3ncc(-c4ccc(Cl)cc4)cc23)c1F
GI50 [1]: 3.23 µM
TGI [1]: 8.74 µM
GI50 [2]: 2.96 µM
TGI [2]: 9.4 µM
GI50 [3]: 13.5 µM
TGI [3]: 22.3 µM
GI50 [4]: 4.41 µM
TGI [4]: 21.3 µM
GI50 [5]: 7.93 µM
TGI [5]: 16 µM
GI50 [6]: 8.19 µM
TGI [6]: 16.1 µM
GI50 [7]: 4.74 µM
TGI [7]: 16.6 µM
GI50 [8]: 4.35 µM
TGI [8]: 9.9 µM
GI50 [9]: 4.33 µM
TGI [9]: 10.5 µM
GI50 [10]: 2.52 µM
TGI [10]: 6.2 µM
GI50 [11]: 0.0305 µM
TGI [11]: 0.321 µM
GI50 [12]: 3.69 µM
TGI [12]: 10.5 µM
GI50 [13]: 1.87 µM
TGI [13]: 8.76 µM
